We go through one molecule from patent EP4670722A1, “PROPHYLACTIC OR AMELIORATING AGENT FOR CELL AGING” (Kyowa Pharma Chemical Co., Ltd., priority 2023, dated 2024).

Molecules are shown by their SMILES.

Holding throughout (format): cell-based, Human
The subject of experiment [1] is laminin. The experiment can be described thus: Laminin secretion amount (ELISA) of tunicamycin-treated dermal fibroblasts. As to conditions: NB1RGB PDL of 30 or less, tunicamycin 0.3 µg/mL, 50 µg/mL to 200 µg/mL, 24 hours; recovery increased as content increased; Fig. 8. The protocol: Human normal dermal fibroblasts (NB1RGB) with a PDL of 30 or less were cultured using DMEM containing 10% FBS. The cultured cells were collected by trypsin treatment. The collected cells were seeded in a 24-well plate, and when they reached 100% confluence, tunicamycin at 0.3 µg/mL was added, and the culture supernatant was collected after 24 hours. A group was also prepared in which FBS-free DMEM medium containing the test sample (2'-fucosyllactose) at 50 µg/mL, 100 µg/mL, or 200 µg/mL was added simultaneously with tunicamycin, and the culture supernatant was collected after 24 hours. The culture supernatant was centrifuged, and the resulting supernatant was used as a sample. […] This total cell protein concentration was measured by the Bradford assay.
Human normal dermal fibroblasts with a PDL of 30 or less were cultured in the same manner as in Example 7-1, except that tunicamycin and the test sample were not added, and the culture supernatant was collected. […] This total cell protein concentration was measured by the Bradford assay.
An Enzyme-Linked Immunosorbent Assay (ELISA) method was performed using an antibody against laminin to measure the amount of laminin in the samples. […] After stopping the reaction, the absorbance at a measurement wavelength of 450 nm was measured using a microplate reader. […]
For orientation: An ELISA detects its analyte on a solid surface through an enzyme-linked reagent.

Another experiment relates to GLS1. The experiment can be described thus: GLS1 expression analysis (Western blot) in dermal fibroblasts cultured with medium of hydrogen peroxide-treated cells. The settings on record: dermal fibroblasts NB1RGB, 50 µg/mL to 200 µg/mL, 24 hours, protein level vs β-actin; effect increased as content increased; Fig. 4. The protocol: Human normal dermal fibroblasts (NB1RGB, PDL of 30 or less) were cultured using DMEM containing 10% FBS. The cultured cells were collected by trypsin treatment. The collected cell-containing liquid was diluted with DMEM containing 10% FBS to a cell concentration of 5.0 x 10^5 cells, seeded in a 10 cm dish, and cultured until 60% confluent. Thereafter, the cultured cells were subjected to a treatment of exposure to a medium containing 50 µM hydrogen peroxide (FBS-free) for 2 hours once a day for 3 days. Then, the medium was replaced with DMEM containing 5% FBS, and after 2 days, the medium (medium A) was collected. Dermal fibroblasts not exposed to hydrogen peroxide were diluted with DMEM containing 10% FBS to a concentration of 5.0 x 10^5 cells, seeded in a 10 cm dish, and cultured for 24 hours. […]
The dermal fibroblasts prepared in [Example 3-1] were diluted with DMEM medium containing 10% FBS to a concentration of 8.0 x 10^4 cells, seeded in a 6-well plate, and cultured until 80% confluent. […] The extracted proteins were quantified by the Bradford assay.
Except that no test sample was added, skin fibroblasts prepared in [Example 3-1] and skin fibroblasts cultured using DMEM containing 10% FBS were cultured in the same manner as in [Example 3-2], and proteins were extracted. The extracted proteins were quantified by the Bradford assay. […]
Background: Immunoblotting shows a protein as a band on a membrane.

For experiment [2], the system named is laminin. The experiment can be described thus: Laminin secretion amount (ELISA) of tunicamycin-treated epidermal keratinocytes. As to conditions: HaCaT, tunicamycin 0.1 µg/mL, 50 µg/mL to 200 µg/mL, 24 hours; recovery increased as content increased; Fig. 7. The method, then: Human normal epidermal keratinocytes (HaCaT) were cultured using DMEM containing 10% FBS. The cultured cells were collected by trypsin treatment. The collected cells were seeded in a 24-well plate, and when they reached 100% confluence, tunicamycin was added at 0.1 µg/mL, and after 24 hours, the culture supernatant was collected. A group was also prepared in which FBS-free DMEM medium containing a test sample (2'-fucosyllactose) at 50 µg/mL, 100 µg/mL, or 200 µg/mL was added simultaneously with tunicamycin, and after 24 hours, the culture supernatant was collected. The culture supernatant was centrifuged, and the resulting supernatant was used as a sample. […] This total cell protein concentration was measured by the Bradford assay.
Human normal epidermal keratinocytes were cultured and the culture supernatant was collected in the same manner as in Example 6-1, except that tunicamycin and the test sample were not added. […] This total cell protein concentration was measured by the Bradford assay.
An Enzyme-Linked Immunosorbent Assay (ELISA) method was performed using an antibody against laminin to measure the amount of laminin in the sample. […] After stopping the reaction, the absorbance at a measurement wavelength of 450 nm was measured with a microplate reader. […]

Take `C[C@@H]1O[C@@H](O[C@H]2[C@H](O[C@H]3[C@H](O)[C@@H](O)C(O)O[C@@H]3CO)O[C@H](CO)[C@H](O)[C@@H]2O)[C@@H](O)[C@H](O)[C@@H]1O` (stereo partly drawn) [2'-FL, 2'-fucosyllactose]: the laminin secretion entry with laminin [1] and with laminin [2] was “restored laminin secretion” in each case. Besides, the “expression of GLS1” value with GLS1 was “suppressed the expression of GLS1”.
